pIC50: −log10 of the molar value. Active and inactive are the calls of the source.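 The calls were made as follows: active = maximal inhibition of the USP30 enzyme reaching 30% or more across the dose series; inactive = the rest.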

Ubiquitin carboxyl-terminal hydrolase 30 (Homo sapiens), sequence (Q70CQ3 whole entry, looked up): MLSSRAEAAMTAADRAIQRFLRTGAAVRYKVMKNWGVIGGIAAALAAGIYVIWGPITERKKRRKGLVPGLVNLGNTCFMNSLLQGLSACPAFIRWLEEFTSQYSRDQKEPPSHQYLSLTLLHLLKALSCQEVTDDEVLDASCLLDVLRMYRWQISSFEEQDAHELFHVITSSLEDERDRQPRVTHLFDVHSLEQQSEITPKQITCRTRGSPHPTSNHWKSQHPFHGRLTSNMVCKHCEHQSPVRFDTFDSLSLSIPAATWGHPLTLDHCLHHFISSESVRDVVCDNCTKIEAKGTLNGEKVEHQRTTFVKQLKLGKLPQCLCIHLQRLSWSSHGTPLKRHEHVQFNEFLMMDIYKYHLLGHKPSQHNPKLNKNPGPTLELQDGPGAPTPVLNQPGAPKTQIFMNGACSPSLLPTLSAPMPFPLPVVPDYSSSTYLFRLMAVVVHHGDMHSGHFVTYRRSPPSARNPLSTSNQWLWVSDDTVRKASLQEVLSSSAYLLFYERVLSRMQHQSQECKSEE

This assay has as its target Ubiquitin carboxyl-terminal hydrolase 30 (Homo sapiens) (UniProt Q70CQ3). Put plainly: inhibitors of ubiquitin-specific protease 30 deubiquitylating enzyme, concentration dependence, in vitro biochemical, validation of primary hits (AID 1645865). The following applies: purified USP30, Ub-rhodamine cleavage, fluorescence, 2 h.
As to `C=C1CCC2[C@](C)(CCC[C@]2(C)C(=O)OC)[C@H]1CCc1ccoc1CNC(C)C` (some centres not stated), the IC50 is > 50 µM (inactive).

Turning to `COC(=O)c1ccc(C(=O)Nc2cc3ccccc3cc2NC(=O)c2ccc(C(=O)OC)cc2)cc1`, the negative logarithm of the IC50 (pIC50) was 6.07.

As for `Cc1cc(C(=O)NC2(O)C(=O)c3ccccc3C2=O)n(C)n1`, the negative logarithm of the IC50 (pIC50) is 4.69.

For `CN[C@H]1CC2(CCN(C(=O)CCCn3cccn3)CC2)OC[C@]1(C)O`, the IC50 is > 50 µM (inactive).

Turning to `Cc1ccc2c(=O)c3c([nH]c2c1C)CCN(CC(=O)NCc1ccc2c(c1)OCO2)C3`, the IC50 is > 50 µM (inactive).

With `O=C(CSc1ccc2nnc(-c3ccccc3)n2n1)N1CCCc2ccccc21`, the pIC50 is 4.97.

Take `CCCc1cc(=O)oc2cc(OCC(=O)NCc3ccc(OC)cc3)ccc12`: the pIC50 is 4.91.

On to `O=C(Nc1ccc2c(c1)OCO2)c1[nH]nc2c1CCc1ccccc1-2`, for which the IC50 was > 50 µM (inactive).

`CCC1=C(c2ccc(C)cc2)S(=O)(=O)NC1=NCC(=O)NCc1ccccc1F`: the IC50 is > 50 µM (inactive).

For `Cc1ccccc1NC(=O)Cn1cc(-c2nc(C3CC3)no2)ccc1=O`, the IC50 was > 50 µM (inactive).

With `Cc1c(-c2nc(-c3ccccc3Cl)no2)nnn1-c1cccc(F)c1`, the pIC50 is 5.39.

Consider `Cn1nccc1C(=O)N1CCCCC1c1ncc(Cc2ccc(Cl)cc2)o1` (configuration not stated), for which the IC50 is > 50 µM (inactive).

As to `N#Cc1ccc(Cn2nnc(-c3cccc(Cl)c3)n2)cc1`, the IC50 was > 50 µM (inactive).

On to `COCCN(C1CCN(CCc2ccc(Cl)cc2)CC1)S(=O)(=O)c1cccc2cccnc12`, for which the IC50 was > 50 µM (inactive).

On to `O=C1CC(O)C(O)c2cccc(O)c21` (configuration not stated), for which the IC50 was > 50 µM (inactive).

As to `Cc1ccn(-c2ccc(NC(=O)C3CCCCC3)cc2)n1`, the pIC50 is 4.77.

As to `O=C(NCc1ccc(F)cc1)C1CCN(c2cnc(N3CCCCC3)nc2)CC1`, the IC50 is > 50 µM (inactive).

As for `COc1ccc(NC(=O)C2CC(=O)Nc3cc(-c4ccccc4)nn32)cc1` (configuration not stated), the pIC50 was 4.65.

Turning to `COc1ccccc1-c1ccc(CN2[C@@H](c3ccccc3)C[C@@H]3NC(=O)CCC[C@H]32)cc1`, the IC50 was > 50 µM (inactive).

In the case of `COc1ccc(NC(=O)c2nnn(-c3ccccc3F)c2C)cc1OC`, the IC50 was > 50 µM (inactive).

Turning to `CC(c1ccccc1)c1nc(-c2ccc(=O)[nH]c2)no1` (configuration not stated), the IC50 was > 50 µM (inactive).

For `COc1ccc2c(c1)CCc1c-2n[nH]c1C(=O)Nc1cc(C)on1`, the pIC50 is 5.39.

With `COc1ccc(-n2cc(C(=O)NCc3ccc4c(c3)OCO4)c3ccccc3c2=O)cc1`, the pIC50 is 4.50.

Consider `O=C(CCc1nnc2n(Cc3ccccc3Cl)c(=O)c3ccccc3n12)NCc1ccccn1`, for which the pIC50 is 4.59.

In the case of `CC(C)c1ccc(NC(=O)c2cc3ncc(Br)cn3n2)cc1`, the IC50 is > 50 µM (inactive).

Regarding `CCc1cccc2c(C(=O)COc3ccc(C#N)cc3)c[nH]c12`, the pIC50 was 4.95.

As for `O=C(Nc1cccc(C(F)(F)F)c1)N1CCCn2c(nc3ccccc32)C1`, the pIC50 was 4.71.

Turning to `CCOCCCn1c(SCC(=O)Nc2ccccc2C(F)(F)F)nc2ccccc2c1=O`, the pIC50 was 4.77.

As for `Cc1cc(C)c(O)c(-c2cc(C(=O)Nc3ccccc3Cl)[nH]n2)c1`, the pIC50 was 5.68.

Take `CCOc1ccc(C(=O)Cn2c(=O)n(CC3CCCO3)c(=O)c3cc(OC)c(OC)cc32)cc1Cl` (configuration not stated): the pIC50 was 4.59.

Regarding `CC(=O)N1CCc2cc(S(=O)(=O)NCc3ccc(C)cc3)ccc21`, the IC50 was > 50 µM (inactive).

`O=C(/C=C/c1ccccc1)N1CCN(C2=NS(=O)(=O)c3ccccc32)CC1`: the IC50 was > 50 µM (inactive).

As for `COc1ccc(NC(=O)COc2cc(CSc3ccccc3)ncc2OC)cc1`, the pIC50 is 4.59.

For `CN(C(=O)c1ccncc1)[C@H]1CC[C@@]2(C)C[C@H](c3ccccc3)C[C@](C)(O2)[C@@H]1O`, the IC50 was > 50 µM (inactive).

Turning to `CC(=O)c1ccccc1NC(=O)COc1ccc(-c2ccc(C#N)cc2)cc1`, the negative-log IC50 (pIC50) was 5.60.

For the compound `COc1c2c(cc3cc(O)c4c(=O)cc(C)oc4c13)CCC2=O`, the IC50 was > 50 µM (inactive).

As for `O=C(COc1cccc(C(=O)NCc2ccccc2)c1)Nc1ccc(Oc2ccccc2)cc1`, the IC50 was > 50 µM (inactive).

Take `CCC1=C(c2ccc(C)cc2)S(=O)(=O)NC1=NCC(=O)NC(C)c1ccccc1` (configuration not stated): the pIC50 was 4.67.

On to `Cc1c(CC(=O)Nc2nn[nH]n2)c(=O)oc2cc3c(cc12)CCC1(CCCCC1)O3`, for which the IC50 is > 50 µM (inactive).

As to `Cc1ccc(Nc2nc(Nc3cccc(F)c3)nc3nccnc23)c(C)c1`, the IC50 was > 50 µM (inactive).

Take `O=C(Nc1ccc(Br)cn1)c1nc2ccccc2nc1N1CCCCC1`: the IC50 was > 50 µM (inactive).

For `COc1ccc(NC(=O)Cn2c(CS(=O)(=O)c3ccc(C)cc3)nc3ccccc32)cc1`, the pIC50 is 5.15.

Turning to `Cc1cc(/C=C2/C(=N)N3C(c4ccccc4)=CSC3=NC2=O)c(C)n1-c1ccc(F)cc1`, the IC50 is > 50 µM (inactive).

Take `COc1ccc(Cl)cc1NC(=O)c1cc(-c2ccccn2)n[nH]1`: the pIC50 is 6.78.

For `Cc1c(-c2ccccc2)oc2c(C(=O)OCC(=O)Nc3ccccc3F)cccc2c1=O`, the IC50 was > 50 µM (inactive).

Take `COc1ccc(C(=O)Nc2cc(-c3ccccn3)no2)cn1`: the IC50 was > 50 µM (inactive).

As for `O=C(NCc1ccc(F)cc1)N1CCC2(C1)Nc1cccnc1NC2=NCc1ccccc1` (configuration not stated), the IC50 is > 50 µM (inactive).

Turning to `Cc1ccc(/C=C/C(=O)Nc2ccc3c(c2)OCCO3)cc1`, the IC50 is > 50 µM (inactive).

For the compound `CCCc1nc2sc3c(NCCc4ccc(OC)c(OC)c4)ncnc3c2c2c1CCC2`, the IC50 was > 50 µM (inactive).

In the case of `COc1ccc(C2SCC(=O)Nc3c2c(=O)[nH]n3C2CCCCCC2)cc1` (configuration not stated), the pIC50 was 4.62.

As to `O=C(CNC(=O)OCc1ccccc1)Nc1ccc(Br)cc1C(=O)c1ccccc1Cl`, the pIC50 was 5.24.

With `COc1ccc(CCNC(=O)CCn2c(=O)c3ccccc3n(Cc3ccc(C)cc3)c2=O)cc1OC`, the pIC50 was 4.59.

`COc1cccc(NC(=O)c2cnc3c(c2)c(=O)n(C)c(=O)n3C)c1`: the pIC50 is 5.69.

Turning to `C[C@@]12c3ccc4c(c3C(=O)c3occ(c31)C(O)C[C@H]2O)CCC4=O` (some centres not stated), the IC50 was > 50 µM (inactive).

On to `CC(CCc1ccccc1)NC(=O)C(=O)c1cn(CC(=O)N2CCOCC2)c2ccccc12` (configuration not stated), for which the IC50 was > 50 µM (inactive).

Regarding `CC1CCCN1C(=O)c1ccn(-c2ccc3ccc(-c4cccnc4)cn23)n1` (configuration not stated), the IC50 is > 50 µM (inactive).

Regarding `COc1cc(C#N)c(NC(=NCc2ccc(F)cc2)SC)cc1OC`, the pIC50 is 4.69.

Turning to `O=C(Nc1ccccc1Cl)N(Cc1cc2cc3c(cc2[nH]c1=O)OCCO3)C1CCCCC1`, the pIC50 was 4.45.

As for `O=C1COc2ccccc2N1Cc1noc(-c2ccccc2)n1`, the IC50 is > 50 µM (inactive).

In the case of `Cc1ccccc1NC(=O)Nc1ccccc1OCc1cc(=O)n2cccc(C)c2n1`, the negative-log IC50 (pIC50) is 6.16.

As for `CC(=O)c1ccc(N2C(=O)N(Cc3cccc([N+](=O)[O-])c3)c3ccccc3S2(=O)=O)cc1`, the IC50 is > 50 µM (inactive).

As for `CC[C@H](C)[C@H](NC(=O)[C@H]([C@@H](C)CC)N(C)C(C)=O)C(=O)N[C@H](C(=O)N[C@@H](CC(C)C)C(=O)C1(C)CO1)[C@@H](C)O` (some centres not stated), the IC50 is > 50 µM (inactive).

With `O=C(COC(=O)C1CCCN1C(=O)C12CC3CC(CC(C3)C1)C2)c1ccc(Cl)cc1` (configuration not stated), the pIC50 was 5.19.

Consider `COc1ncccc1CN1CCn2c(Cn3cccn3)cnc2C1C` (configuration not stated), for which the IC50 is > 50 µM (inactive).

With `CCOC(=O)CSc1nnc(-c2cnn(-c3ccccc3)c2N)o1`, the negative-log IC50 (pIC50) is 4.74.

On to `COc1ccc(N(CC(=O)Nc2cccc(F)c2)S(=O)(=O)c2ccc(OC)c(OC)c2)cc1`, for which the pIC50 is 4.75.

`O=c1[nH]c(C2CCN(S(=O)(=O)c3ccc(S(=O)(=O)NC4CCCCC4)cc3)CC2)nc2c1nnn2Cc1c(F)cccc1Cl`: the negative logarithm of the IC50 (pIC50) is 4.64.

For the compound `NC(=O)c1nnn(-c2ccc(NC(=O)c3ccc(F)c(F)c3)cc2)n1`, the pIC50 is 4.82.

For `COc1c(O)c(O)c2c(=O)cc(-c3ccc(O)cc3)oc2c1OC`, the IC50 was > 50 µM (inactive).

For `O=C(CC1C(=O)N(Cc2cccnc2)c2nc3ccccc3n21)Nc1cccc2ccccc12` (configuration not stated), the IC50 is > 50 µM (inactive).

Consider `Nc1ccccc1SC(CC(=O)c1ccc(Cl)cc1)c1ccsc1` (configuration not stated), for which the IC50 was > 50 µM (inactive).

On to `Cc1nn(Cc2ccccc2)c2sc(C(=O)Nc3nc4ccccc4[nH]3)cc12`, for which the pIC50 is 4.71.

In the case of `Cc1cccc(-c2nc3n(CC(=O)Nc4ccc(Cl)cc4)c(C)cc(=O)n3n2)c1`, the pIC50 is 6.75.

`Cc1cccc(CNC(=O)c2ccc(-c3nnc(-c4cccc(C)c4)o3)cc2)c1`: the pIC50 was 5.25.

For `Cc1ccc(-c2nc(NC(=O)COc3ccc(Cl)cc3)no2)cc1`, the pIC50 was 5.87.

Consider `CC(C)NS(=O)(=O)c1cccc2c(NC(=O)C(Cc3ccccc3)NC(=O)c3ccccc3)cccc12` (configuration not stated), for which the negative logarithm of the IC50 (pIC50) is > 7.30.

Take `CC(=O)Nc1ccc(NC(=O)c2cc(-c3cc(C)cc(C)c3O)n[nH]2)cc1`: the negative logarithm of the IC50 (pIC50) was 4.92.

For `CC1(C)Cc2c(sc3nc(Cc4ccccc4)nc(SCC(=O)Nc4ccccc4)c23)CO1`, the negative-log IC50 (pIC50) was 5.74.

In the case of `Cc1cccc(-c2noc(CCn3c(=O)[nH]c4ccccc4c3=O)n2)c1`, the pIC50 was 4.53.

Turning to `O=C(Cn1nnc(-c2ccc(F)cc2)n1)NCCc1ccccc1`, the IC50 is > 50 µM (inactive).

For the compound `CN(C)C(=O)CSc1nnc(-c2cccc(Cl)c2)n1-c1ccc(Cl)c(C(F)(F)F)c1`, the pIC50 was 5.68.

For the compound `CC(C)(C)n1ncc2c(=O)n(Cc3cccc([N+](=O)[O-])c3)cnc21`, the IC50 is > 50 µM (inactive).

`CC(C)(C)n1nc(C2CC2)c(Br)c1NC(=O)c1ccccc1F`: the pIC50 was 4.47.

On to `Cc1ccc(Cc2nc(-c3ccc(=O)[nH]c3)no2)cc1`, for which the IC50 was > 50 µM (inactive).

For the compound `Cn1nc(-c2nc(-c3ccccc3)no2)c2c1CCN(C(=O)C1CC1)C2`, the IC50 was > 50 µM (inactive).

In the case of `O=C(CC1Oc2ccccc2NC1=O)Nc1ccccc1Br` (configuration not stated), the pIC50 was 4.35.

As to `Cc1nn(-c2cccc(F)c2)c2c1c(C)c(CCC(=O)NCc1ccccn1)c(=O)n2C`, the pIC50 is 5.49.

The values above are taken from PubChem BioAssay AID1645865 (Buhrlage Lab, Dana-Farber Cancer Institute and Novartis …, 2021).
